# Test results reported in PMC11558998, “Lipophilic bisphosphonates reduced cyst burden and ameliorated hyperactivity of mice chronically infected with Toxoplasma gondii” (mBio, 2024).
# Tests used:
# [1] = test system: ex vivo bradyzoites of the Pru strain from chronically infected mice; assay: Ex vivo bradyzoite growth assay, Pru; assay type: cell-based, Toxoplasma gondii; settings: 3x EC50
# Description: (§1) Brains of chronically infected mice were collected, homogenized with seven strokes in a glass homogenizer, and then enumerated on a Delta Vision microscope [protocol adapted from reference ([45])]. Twenty-five cysts per plate were then placed in a tube for acid/pepsin (170 mM sodium chloride, 60 mM hydrochloric acid, and 0.1 mg/mL pepsin) treatment for 10 minutes in a 37°C water bath. The cysts were then neutralized with 94 mM Na2CO3. The liberated bradyzoites were then equally distributed into a 12-well plate. For the growth assay, the cells were grown in the presence of compounds or DMSO for 12 and 14 days undisturbed. For the viability assays, the cells were treated with compounds or DMSO for 4 hours before being washed with 1× PBS and then grown for 12 and 14 days in media without compounds. After 12 and 14 days, the cells were fixed with 100% ethanol and stained with 2.5× crystal violet. The control DMSO plaque image is duplicated from Fig. 2B to be used as the representative image of plaques in Fig. 2A. Plaques were quantified on a light microscope using the 4× objective and the size of the plaques was measured using Fiji (ImageJ) software.
# C2C12 myoblasts = assay: Cytotoxicity on C2C12 myoblasts (Alamar Blue); assay type: cell-based
# Description: (§2) The cytotoxicity was tested using an Alamar Blue assay as described by Recher et al. ([49]).
# [2] = test system: hyperactivity of Balb/c mice chronically infected with Pru-GFP; assay: CageDot continuous monitoring of mouse activity during chronic infection; settings: 5 mg/kg/day i.p. 16 days, 15 dpt and 2 wpt
# Description: At this time, the remaining mice were injected i.p. daily for 16 consecutive days with 200 µL solvent (10% Kolliphor HS-15) or compounds dissolved in 10% HS-15. […] Mice were euthanized humanely 2 weeks after the final injection.
# Mice were monitored during the infection using the CageDot ([30], [31]), which detects vibrations. […] Data are collected at a 100 Hz sampling rate (each second, 100 data points were collected).
# [3] = test system: type I/III EGS strain cysts; assay: Vacuole size of spontaneously formed EGS cysts; assay type: cell-based, Toxoplasma gondii; settings: EGS spontaneous cysts, 3x EC50, 4 days
# Description: (§3) Type II Me49 or Pru was differentiated using compound 1 as previously described ([50]). Confluent HFF monolayers on glass coverslips (preincubated for 2 hours with 3 µM compound 1, as described previously) were infected with 5 × 10^3 tachyzoites of the ME49 or Pru (type 2) or EGS (type I/III) strain (no compound 1 for EGS). The cells were allowed to grow and differentiate in a 37°C incubator with ambient CO2 for 3 days (EGS was allowed to spontaneously differentiate for 4 days). […] After 7 days (Me49) or 8 days (EGS) of incubation, the cells were fixed with 3% paraformaldehyde for 10 minutes, permeabilized with 0.25% Triton X-100 for 10 minutes, and then blocked in 3% bovine serum albumin for 1 hour. The coverslips were then incubated in DBA rhodamine (for Me49)([51]) or DBA lectin (a kind gift from Diego Huet for EGS) and anti-SAG1 rat antibody (a kind gift from Vern Carruthers) for 2 hours. Then, the secondary anti-rat 488 was used to visualize the SAG1 antibody. The cells were then mounted onto microscope slides with fluoromount and DAPI (4′,6-diamidino-2-phenylindole). The slides were placed in the fridge for a minimum of 24 hours before imaging on a Delta Vision microscope. The vacuole sizes were calculated using ImageJ software.
# [4] = test system: Me49-RFP brain tissue cysts in CBA/j mice; assay type: in vivo, Toxoplasma gondii; settings: 500 Me49-RFP i.p., 5 mg/kg/day i.p. for 16 days from 28 dpi, brains 2 weeks after treatment
# Description: CBA/j female mice (Jackson Laboratory) were injected i.p. with a 200 µL suspension of 500 tachyzoites of the Me49-RFP strain T. gondii (type II genotype). […] At 4 weeks post-infection, the brains of two mice were collected to check for the presence of cysts and to confirm that the mice were in the chronic stage. At this time, the remaining mice were injected i.p. daily for 16 consecutive days with 200 µL solvent (10% Kolliphor HS-15) or compounds dissolved in 10% HS-15. […] Mice were euthanized humanely 2 weeks after the final injection. The mouse brains were collected in 1 mL sterile PBS, minced with scissors, and homogenized using a glass homogenizer. Four 20 µL samples (80 µL total or 8% of sample) of each brain homogenate were placed on a glass microscope slide. Cysts were enumerated using a Delta Vision fluorescence microscope.
# [5] = test system: Pru-GFP brain tissue cysts in Balb/c mice; assay: Treatment of Balb/c mice chronically infected with Pru-GFP; settings: Balb/c mice, 1,500 Pru-GFP i.p., 5 mg/kg/day i.p. for 16 days from 28 dpi
# Description: BALB/c male mice (Jackson Laboratory) were injected i.p. with a 200 µL suspension of 1,500 tachyzoites of the Pru-GFP strain T. gondii (type II genotype) (a gift from Laura Knoll). […] At 4 weeks post-infection, the brains of two mice were collected to check for the presence of cysts and to confirm that the mice were in the chronic stage. At this time, the remaining mice were injected i.p. daily for 16 consecutive days with 200 µL solvent (10% Kolliphor HS-15) or compounds dissolved in 10% HS-15. […] Mice were euthanized humanely 2 weeks after the final injection. The mouse brains were collected in 1 mL sterile PBS, minced with scissors, and homogenized using a glass homogenizer. Four 20 µL samples (80 µL total or 8% of sample) of each brain homogenate were placed on a glass microscope slide. Cysts were enumerated using a Delta Vision fluorescence microscope.
# [6] = test system: T. gondii Me49 strain (type II) tachyzoites; assay: In vitro growth inhibition of red fluorescent tachyzoites, Me49 strain; assay type: cell-based; settings: Toxoplasma gondii, tachyzoite growth
# Description: (§4) Experiments with T. gondii tachyzoites were carried out with parasites expressing a td-Tomato RFP ([48], [49]). For drug testing and growth assays, parasites were purified by passing them through a 25-gauge needle, followed by filtration through a 5 µm filter. Human fibroblasts were cultured in 96-well black plates for 48 (hTERT) or 120 (HFF) hours prior to the addition of 4,000 (type I) or 8,000 (type II) fluorescent tachyzoites per well. Fluorescence values were measured for up to 7 days (type I) and 21 days (type II), and both excitation (544 nm) and emission (590 nm) were read from the bottom of the plates in a Molecular Devices plate reader ([36]). The EC50s were calculated using GraphPad Prism software.
# T. gondii ATQ^R R4 = assay: In vitro growth inhibition, atovaquone resistant strain R4; assay type: cell-based; settings: Toxoplasma gondii, read-out: EC50 ATQ^R R4, atovaquone resistant strain R4
# Description: as §4
# T. gondii tachyzoites = assay: EC50 against tachyzoites indicated in Fig. 1E, used to set 3x and 5x concentrations; settings: Toxoplasma gondii, read-out: indicated EC50 (shown in parentheses, Fig. 1E)
# T. gondii ATQ^R R5 = assay: In vitro growth inhibition, atovaquone resistant strain R5; assay type: cell-based; settings: Toxoplasma gondii, read-out: EC50 ATQ^R R5
# Description: as §4
# [7] = test system: Me49-RFP brain tissue cysts in Swiss Webster mice; assay: Treatment of Swiss Webster mice chronically infected with Me49-RFP; assay type: in vivo, Toxoplasma gondii; settings: Swiss Webster mice, 5,000 Me49-RFP i.p.
# [8] = test system: Human Foreskin Fibroblasts (HFF); assay: Cytotoxicity on HFF cells (Alamar Blue); assay type: cell-based
# Description: as §2
# [9] = test system: ex vivo bradyzoites of Me49-RFP from brains of chronically infected mice; assay: Ex vivo bradyzoite growth assay, Me49-RFP; assay type: cell-based, Toxoplasma gondii; settings: inhibitors present 14 days, 3x EC50
# Description: as §1
# [10] = test system: ex vivo bradyzoites of Me49-RFP from brains of chronically infected mice; assay: Ex vivo bradyzoite viability assay, Me49-RFP; assay type: cell-based, Toxoplasma gondii; settings: inhibitors 4 hours then drug-free 14 days, 3x EC50
# Description: as §1
# [11] = test system: ex vivo bradyzoites of the Pru strain from chronically infected mice; assay: Ex vivo bradyzoite viability assay, Pru; assay type: cell-based, Toxoplasma gondii; settings: 3x EC50
# Description: as §1
# [12] = test system: in vitro differentiated Me49 bradyzoites (cysts); assay: Vacuole size of in vitro differentiated Me49 cysts (DBA/SAG1 IFA); assay type: cell-based, Toxoplasma gondii; settings: positive control, concentration not stated in the sentence (Fig. 1C: 3x and 5x EC50)
# Description: as §3
# [13] = test system: T. gondii Pru strain (type II) tachyzoites; assay: In vitro growth inhibition of red fluorescent tachyzoites, Pru strain; assay type: cell-based, Toxoplasma gondii; settings: tachyzoite growth
# Description: as §4
# [14] = test system: in vitro derived Pru cysts; assay: Vacuole size of in vitro derived Pru cysts; assay type: cell-based, Toxoplasma gondii
# Description: as §3
# [15] = test system: toxoplasmosis relapse in patients; settings: after 6 years of therapy; cited from earlier work
# [16] = test system: T. gondii RH strain (type I) tachyzoites; assay: In vitro growth inhibition of red fluorescent tachyzoites, RH strain; assay type: cell-based; settings: Toxoplasma gondii, tachyzoite growth
# Description: as §4
structure (smiles),measurement,setting,value
O=C1C(O)=C([C@H]2CC[C@H](c3ccc(Cl)cc3)CC2)C(=O)c2ccccc21 [Atovaquone],"number of plaques, ex vivo growth",[1],significant reduction in the number of plaques
same,% Inhibition on C2C12,C2C12 myoblasts; 4X EC50,2.61 ± 4.48%
same,% Inhibition on C2C12,C2C12 myoblasts; 10X EC50,6.84 ± 5.34%
same,"activity of infected mice (nightly average energy, CageDot)",[2],decreased the activity of the infected mice to similar levels of the control uninfected mice
same,size of the vacuoles (cysts),[3],reduced the size of the vacuoles
same,reduction in the number of cysts compared to the control,[4],56.6%
same,reduction of cyst burden,[5],71.9%
same,EC50,[6],1.53 ± 0.229 nM
same,EC50,T. gondii ATQ^R R4,1900 nM
same,EC50,T. gondii tachyzoites,10 nM
same,EC50,T. gondii ATQ^R R5,1030 ± 290 nM
same,reduction of cyst burden,[7]; ATQ at 5 mg/kg daily for 16 days,65.5%
same,cyst size,[7]; daily treatment 16 days,reduced the size of the cysts
same,% Inhibition on HFF,[8]; 4X EC50,4.69 ± 2.56%
same,% Inhibition on HFF,[8]; 10X EC50,7.23 ± 2.29%
same,"number of plaques, ex vivo growth",[9],effective against bradyzoite growth
same,"number of plaques, ex vivo viability",[10],only a minimal impact on viability
same,"number of plaques, ex vivo viability",[11],significant reduction in the number of plaques
same,vacuole size,[12],reduced vacuole size
same,EC50,[13],4.17 ± 2.34 nM
same,vacuole size,[14],decreased the vacuole size
same,patients experiencing relapse,[15],up to 75%
CCc1nc(N)nc(N)c1-c1ccc(Cl)cc1 [Pyrimethamine],% Inhibition on C2C12,C2C12 myoblasts; 4X EC50,2.39 ± 3.50%
same,% Inhibition on C2C12,C2C12 myoblasts; 10X EC50,6.57 ± 1.31%
same,EC50,[6],1.67 ± 0.268 nM
same,EC50,T. gondii ATQ^R R4,22.1 ± 3.52 nM
same,EC50,T. gondii ATQ^R R5,5.23 ± 0.221 nM
same,% Inhibition on HFF,[8]; 4X EC50,0.38 ± 2.61%
same,% Inhibition on HFF,[8]; 10X EC50,6.18 ± 0.98%
same,EC50,[13]; Toxoplasma gondii,43.2 ± 2.58 nM
same,EC50,[16],383 ± 78 nM
